Data on one molecule can be found in patent publication CN109223750A, “琥珀酸在防治对虾肠炎中的应用” (South China Sea Fisheries Research Institute Chinese …, priority 2018, dated 2019).

Read-outs that look alike come from different tables or passages of the source.

For one assay, the system named is NF-κB. The settings on record: 7 days, versus enteritis model group.
In the next assay the test system is TNF-α. The settings on record: 7 days, versus enteritis model group.
For a further assay, the system named is IL-10. The settings on record: 7 days, versus enteritis model group.
Another assay deals with IL-1β. The settings on record: 7 days, versus enteritis model group.
Assay [1] deals with shrimp intestinal mucosa (对虾 肠道黏膜). The settings on record: 7 days; for intestinal mucosal damage (histopathology): HE, ×200.
The conditions of assay [2]: cited from earlier work.
The next assay concerns bacteria (细菌). The settings on record: by raising bacterial proton motive force; cited from earlier work.
The test system of assay [3] is tilapia-derived Streptococcus agalactiae β-haemolysin/cytolysin (罗非鱼源无乳链球菌β-溶血/溶细胞素). Particulars: cited from earlier work.
A further assay concerns HIF-1α. The settings on record: through activation of HIF-1α; cited from earlier work.

For `O=C(O)CCC(=O)O` [琥珀酸], the NF-κB expression result with NF-κB (high dose: 1% in feed) and in the assay with NF-κB (low dose: 0.25% in feed) was “显著降低” in each case. For the same molecule, the TNF-α expression result in the assay with TNF-α (high dose: 1% in feed) and in the assay with TNF-α (low dose: 0.25% in feed) was “显著降低” each time. Moreover, the IL-10 expression result with IL-10 (high dose: 1% in feed) and in the assay with IL-10 (low dose: 0.25% in feed) was “显著降低” throughout. In addition, the IL-1β expression result in the assay on IL-1β (high dose: 1% in feed) and in the assay on IL-1β (low dose: 0.25% in feed) was “显著降低” each time. The “intestinal mucosal damage (histopathology)” value in assay [1] (high dose: 1% succinic acid in basal feed) and in assay [1] (low dose: 0.25% succinic acid in basal feed) was “肠道黏膜损伤已修复,形态完整,结构清晰” in each case. The “intestinal epithelial cell height” value is reported as “均有明显增加” in [1] (high dose: 1% succinic acid in basal feed, versus blank control group and versus low-dose group); “有明显增加” in assay [1] (low dose: 0.25% succinic acid in basal feed, versus blank control group). For the same molecule, the “antibacterial and antioxidant function” value in assay [2] (in vivo) is on record as “提高”. Also, the feed conversion ratio result in assay [2] (shrimp) is reported as “降低”. The “sensitivity of bacteria to antibiotics” value in the assay with bacteria (细菌) is “能够提高细菌对抗生素的敏感性”. Besides, the “activity of β-haemolysin/cytolysin” value in assay [3] is “抑制”. Besides, in the assay with HIF-1α, the “IL-1β secretion, inflammation” value is “诱导IL-1β分泌促进炎症”.
